Data as given in patent publication US6794402B2, “Bicyclic cyclohexylamines and their use as NMDA receptor antagonists” (Warner-Lambert Company, priority 2000, dated 2004).

Columns and labels:
[1] = molecular target: T1, [3H]ifenprodil binding site, rat forebrain membranes (Rattus norvegicus, UniProt P35439+Q00960); assay: [3H]Ifenprodil binding assay; settings: 4 nM [3H]-ifenprodil, 2 hours at room temperature
T1 construct: membrane fraction was prepared from frozen adult rat forebrains; tissue Zivic-Miller Laboratories, Inc; host or cells: adult rat forebrain, washed buffy coat membrane fraction
T1 sequence (Q00960 27-1482, other chains not shown): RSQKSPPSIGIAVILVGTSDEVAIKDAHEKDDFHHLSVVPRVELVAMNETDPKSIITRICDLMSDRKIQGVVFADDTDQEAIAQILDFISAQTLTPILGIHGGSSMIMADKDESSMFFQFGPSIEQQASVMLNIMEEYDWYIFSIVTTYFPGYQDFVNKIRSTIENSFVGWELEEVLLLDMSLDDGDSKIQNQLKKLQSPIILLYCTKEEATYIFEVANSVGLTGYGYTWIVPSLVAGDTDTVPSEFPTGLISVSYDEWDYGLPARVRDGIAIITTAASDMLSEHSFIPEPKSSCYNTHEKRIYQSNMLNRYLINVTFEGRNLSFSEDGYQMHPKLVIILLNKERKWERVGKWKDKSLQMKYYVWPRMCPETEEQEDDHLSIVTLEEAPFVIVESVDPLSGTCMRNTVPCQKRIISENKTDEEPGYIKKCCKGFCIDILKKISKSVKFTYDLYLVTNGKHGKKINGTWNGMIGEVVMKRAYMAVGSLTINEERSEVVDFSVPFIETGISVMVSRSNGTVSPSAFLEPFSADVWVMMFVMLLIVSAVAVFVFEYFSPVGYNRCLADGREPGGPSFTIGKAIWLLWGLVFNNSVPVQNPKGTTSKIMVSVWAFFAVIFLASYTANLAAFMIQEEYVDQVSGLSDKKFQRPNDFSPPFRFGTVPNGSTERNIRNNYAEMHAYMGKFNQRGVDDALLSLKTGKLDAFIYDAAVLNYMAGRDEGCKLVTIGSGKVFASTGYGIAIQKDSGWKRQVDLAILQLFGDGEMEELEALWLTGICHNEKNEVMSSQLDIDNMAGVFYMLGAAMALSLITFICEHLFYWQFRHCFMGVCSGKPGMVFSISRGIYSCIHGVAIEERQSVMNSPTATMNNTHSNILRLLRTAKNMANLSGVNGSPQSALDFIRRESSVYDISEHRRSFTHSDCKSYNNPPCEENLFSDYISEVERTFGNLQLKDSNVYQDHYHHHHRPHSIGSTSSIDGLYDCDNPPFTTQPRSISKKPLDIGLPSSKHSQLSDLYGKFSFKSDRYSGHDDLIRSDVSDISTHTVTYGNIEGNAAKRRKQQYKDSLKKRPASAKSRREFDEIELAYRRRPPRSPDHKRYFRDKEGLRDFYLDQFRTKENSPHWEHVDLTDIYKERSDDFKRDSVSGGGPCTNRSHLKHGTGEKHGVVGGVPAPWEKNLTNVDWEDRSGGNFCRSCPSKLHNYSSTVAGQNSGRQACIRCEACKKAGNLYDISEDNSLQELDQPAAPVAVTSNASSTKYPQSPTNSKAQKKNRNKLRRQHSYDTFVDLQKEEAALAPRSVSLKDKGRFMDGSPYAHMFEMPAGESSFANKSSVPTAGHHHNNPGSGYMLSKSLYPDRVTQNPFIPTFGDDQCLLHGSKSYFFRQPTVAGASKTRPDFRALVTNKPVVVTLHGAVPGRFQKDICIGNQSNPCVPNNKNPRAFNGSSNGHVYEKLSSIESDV
Outline: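 Washed rat forebrain buffy coat membranes (100-200 μg protein) were incubated with 4 nM [3H]ifenprodil in 20 mM HEPES-KOH pH 7.4 for 2 hours at room temperature, in triplicate, then filtered on PEI-soaked GF/B filters. Nonspecific binding was set with 1 mM ifenprodil. IC50 came from a one- or two-site competition fit.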

NR1A/NR2B NMDA receptor = NR1A/NR2B NMDA receptor (Rattus norvegicus, UniProt P35439+Q00960); assay: Electrophysiological assay at NMDA receptor subunits expressed in Xenopus oocytes; format: cell-based; settings: cloned rat NR1A/NR2B in Xenopus oocytes, two-electrode voltage clamp, glutamate 100 μM + glycine 1-100 μM; read-out: NR1A/NR2B Oocyte IC50
Chain of NR1A/NR2B NMDA receptor (Q00960 27-1482, other chains not shown): as above
From the text: Preparation of RNA. cDNA clones encoding the NR1A, NR2A, NR2B, and NR2C rat NMDA receptor subtypes were used (see, Moriyoshi, supra., 1991; Kutsuwada et al., supra., 1992; Monyer et al., supra, 1992; Ikeda et al., FEBS Lett., 1992;313:34-38; Ishii et al., J. Biol. Chem., 1993;268:2836-2843 for details of these clones or their mouse homologs). The clones were transformed into appropriate host bacteria and plasmid preparations were made with conventional DNA purification techniques. A sample of each clone linearized by restriction enzyme digestion […] was synthesized with T3 RNA polymerase. The cRNA was diluted to 400 ng/μL and stored in 1-μL aliquots at −80° C. until injection.
The Xenopus oocyte expression system. Mature female Xenopus laevis were anaesthetized (20-40 minutes) using 0.15% 3-aminobenzoic acid ethyl ester (MS-222), and 2 to 4 ovarian lobes were surgically removed. Oocytes at developmental stages IV-VI (Dumont J. N., J. Morphol., 1972;136:153-180) were dissected from the ovary still surrounded by enveloping ovarian tissues. Follicle-enclosed oocytes were microinjected with 1:1 mixtures of NR1A:NR2A, 2B or 2C; injecting 1 to 10 ng of RNA encoding each receptor subunit. NR1A encoding RNA was injected alone at ˜20 ng. Oocytes were stored in Barth's medium containing (in mM): NaCl, 88; KCl, 1; CaCl2, 0.41; Ca (NO3)2, 0.33; MgSO4, 0.82; NaHCO3, 2.4; HEPES 5; pH 7.4, with 0.11 mg/mL gentamicin sulphate. While oocytes were still surrounded by enveloping ovarian tissues, the Barth's medium was supplemented with 0.1% bovine serum. Oocytes were defolliculated 1 to 2 days following injections by treatment with collagenase (0.5 mg/mL Sigma Type I for 0.5-1 hr)-(Miledi and Woodward, J. Phsyiol., (Lond) 1989;416:601-621) and subsequently stored in serum-free medium.
Electrical recordings were made using a conventional two-electrode voltage clamp (Dagan TEV-200) over periods ranging between 3 to 21 days following injection (Woodward et al., Mol. Pharmacol., 1992;41:89-103). Oocytes were placed in a 0.1-mL recording chamber continuously perfused (5 mL-15 mL min^−1) with frog Ringer's solution containing (in mM): NaCl, 115; KCL, 2; BaCl2, 1.8; HEPES, 5; and pH 7.4. Drugs were applied by bath perfusion. Using oocytes expressing different subunit combinations of NMDA receptor, NMDA currents were activated by co-application of glutamate (100 μM) and glycine (1-100 μM). Inhibitory potency of the novel antagonists was assessed on responses elicited by fixed concentrations of glutamate and glycine, by measuring reductions in current induced by progressively increasing concentrations of antagonist.
Concentration-inhibition curves were fit with Equation 1.
I/Icontrol=1/(1+([antagonist]/10−^pIC50)^n) Eq. 1
In which Icontrol is the current evoked by agonists alone, pIC50=−log IC50, IC50 is the concentration of antagonist that produced half maximal inhibition, and n is the slope factor (De Lean et al., Am. J. Physiol., 1978;235:E97-102). For incomplete curves, analysis by fitting was unreliable and IC50 values were calculated by simple regression over linear portions of the curves (Origin: Microcal Software).

[2] = test system: 6-Hydroxydopamine-lesioned rats; assay: 6-OHDA lesioned rat assay; format: in vivo; settings: for 6-OHDA MED: minimum effective dose to potentiate contraversive rotation induced by L-DOPA methyl ester 10 mg/kg SC, 6-hour period; for 6-OHDA active/inactive at the given dose: statistically significant increase in contraversive rotations vs L-DOPA only
Method: 6-Hydroxydopamine-lesioned rats were used (see Ungerstedt U., Arbuthnott G. W., Quantitative recording of rotational behavior in rats after 6-hydroxy-dopamine lesions of the nigrostraiatal dopamine system. Brain Res., 1971;24(3):485-93). Adult male Sprague-Dawley rats were anesthetized with chloral hydrate and unilateral lesions of the nigrostriatal dopamine system were accomplished by infusion of 8 μg of 6-hydroxydopamine HBr (6-OHDA) into the right medial forebrain bundle. Rats were pretreated 30 minutes before surgery with desipramine HCl 25 mg/kg intraperitoneally (IP) to protect noradrenegic neurons, and pargyline 25 mg/kg IP to potentiate the effects of 6-OHDA. A minimum of 3 weeks after surgery, the rotational behavior induced by apomorphine HCL 50 μg/kg subcutaneously (SC) was assessed.
Rotational behavior was measured using an automatic rotometer system (Rotorat Rotational Activity System, MED Associates, Georgia, Vt.). Anti-parkinsonian activity was assessed as the ability of the compound to potentiate the contraversive rotation induced by L-DOPA methyl ester, 10 mg/kg SC, over a 6-hour period. Experiments were conducted using a crossover paradigm where each rat received either a vehicle plus L-DOPA, or the test compound plus L-DOPA, in randomized order. Rats were tested at 7-day intervals. In experiments in which the compound was tested orally, rats were food deprived for 16 hours. Statistical analysis between treatment groups were performed using a paired t-test. The results were reported in Table 1 as the minimum effective dose (MED) of compound (mg/kg) required to produce a statistically-significant increase in total contraversive rotations compared to rats receiving L-DOPA only.

With `C[C@H](N[C@H]1CC[C@H](c2ccc3[nH]c(=O)oc3c2)CC1)[C@H](O)c1ccccc1` (stereo in doubt) [Example 12, 6-{trans-4-[(1S,2R)-2-Hydroxy-1-methyl-2-phenylethylamino]cyclohexyl}-3H-benzoxazol-2-one] the IC50 [1] was 22500 nM and the IC50 (NR1A/NR2B NMDA receptor) was 70000 nM.

In the case of `O=c1[nH]c2ccc([C@H]3CC[C@H](NCCCc4ccc(F)cc4)CC3)cc2o1` [Example 4a, 6-{trans-4-[3-(4-Fluorophenyl)propylamino]cyclohexyl}-3H-benzoxazol-2-one], the “6-OHDA MED” value [2] is reported as > 10.0 mg/kg, the “6-OHDA active/inactive at the given dose” value [2] is reported as “inactive” and the IC50 [1] is reported as 7 nM. It also gave an IC50 (NR1A/NR2B NMDA receptor) of 20 nM.

For `O=c1[nH]c2ccc([C@H]3CC[C@H](NCCSc4ccccc4)CC3)cc2o1` [Example 5a, 6-[trans-4-(2-Phenylsulfanylethylamino)cyclohexyl]-3H-benzoxazol-2-one], the IC50 [1] was 4 nM and the IC50 (NR1A/NR2B NMDA receptor) was 20 nM.

With `O=c1[nH]c2ccc([C@H]3CC[C@H](NCCNc4ccccc4)CC3)cc2o1` [Example 7, 6-[trans-4-(2-Phenylaminoethylamino)cyclohexyl]-3H-benzoxazol-2-one] the melting point was 293 to 295 °C, the IC50 [1] was 37 nM and the IC50 (NR1A/NR2B NMDA receptor) was 90 nM.

For `O=c1[nH]c2ccc([C@H]3CC[C@H](NCCSc4ccc(F)cc4)CC3)cc2o1` [Example 8, 6-{trans-4-[2-(4-Fluorophenylsulfanyl)ethylamino]cyclohexyl}-3H-benzoxazol-2-one], the IC50 (NR1A/NR2B NMDA receptor) was 20 nM.

Work on `C[C@H](CCc1ccccc1)N[C@H]1CC[C@H](c2ccc3[nH]c(=O)oc3c2)CC1` [Example 9, 6-{trans-4-[(R)-1-Methyl-3-phenylpropylamino]cyclohexyl}-3H-benzoxazol-2-one] yielded an IC50 [1] of 15 nM and an IC50 (NR1A/NR2B NMDA receptor) of 60 nM.

`C[C@@H](CCc1ccccc1)N[C@H]1CC[C@H](c2ccc3[nH]c(=O)oc3c2)CC1` [Example 10, 6-{trans-4-[(S)-1-Methyl-3-phenylpropylamino]cyclohexyl}-3H-benzoxazol-2-one] showed a melting point of 174 to 176 °C, an IC50 [1] of 49 nM and an IC50 (NR1A/NR2B NMDA receptor) of 110 nM.

With `COc1ccc([C@H](O)[C@H](C)N[C@H]2CC[C@H](c3ccc4[nH]c(=O)oc4c3)CC2)cc1` [Example 11a, 6-{trans-4-[(1S,2S)-2-Hydroxy-2-(4-methoxyphenyl)-1-methylethylamino]-cyclohexyl}-3H-benzoxazol-2-one] the IC50 [1] was > 1000 nM and the IC50 (NR1A/NR2B NMDA receptor) was 55000 nM.

For `COc1ccc([C@H](O)[C@H](C)N[C@H]2CC[C@@H](c3ccc4[nH]c(=O)oc4c3)CC2)cc1` [Example 11b, 6-{cis-4-[(1S,2S)-2-Hydroxy-2-(4-methoxyphenyl)-1-methylethylamino]-cyclohexyl}-3H-benzoxazol-2-one], the IC50 [1] was > 1000 nM and the IC50 (NR1A/NR2B NMDA receptor) was 10000 nM.

Compound `Cc1ccc(CCCN[C@H]2CC[C@@H](c3ccc4[nH]c(=O)oc4c3)CC2)cc1` [Example 13a, 6-[cis-4-(3-p-Tolylpropylamino)cyclohexyl]-3H-benzoxazol-2-one] has an IC50 [1] of 38 nM and an IC50 (NR1A/NR2B NMDA receptor) of 80 nM.

Work on `Cc1ccc(CCCN[C@H]2CC[C@H](c3ccc4[nH]c(=O)oc4c3)CC2)cc1` [Example 13b, 6-[trans-4-(3-p-Tolylpropylamino)cyclohexyl]-3H-benzoxazol-2-one] yielded an IC50 [1] of 5 nM and an IC50 (NR1A/NR2B NMDA receptor) of 20 nM.

With `O=c1[nH]c2ccc([C@H]3CC[C@H](NCC[S+]([O-])c4ccccc4)CC3)cc2o1` (stereo partly drawn) [Example 15, 6-[trans-4-(2-Benzenesulfinylethylamino)cyclohexyl]-3H-benzoxazol-2-one] the IC50 [1] was 92 nM and the IC50 (NR1A/NR2B NMDA receptor) was 460 nM.

In the case of `O=c1[nH]c2ccc([C@H]3CC[C@H](NCCS(=O)(=O)c4ccccc4)CC3)cc2o1` [Example 16, 6-[trans-4-(2-Benzenesulfonylethylamino)cyclohexyl]-3H-benzoxazol-2-one], the IC50 [1] is reported as 1730 nM and the IC50 (NR1A/NR2B NMDA receptor) is reported as 2500 nM.

In the case of `CN(CCCc1ccccc1)[C@H]1CC[C@H](c2ccc3[nH]c(=O)oc3c2)CC1` [Example 17, 6-{trans-4-[Methyl(3-phenylpropyl)amino]cyclohexyl}-3H-benzoxazol-2-one], the melting point is reported as 58 to 62 °C, the “6-OHDA MED” value [2] is reported as 10 mg/kg and the “6-OHDA active/inactive at the given dose” value [2] is reported as “active”. The IC50 [1] was 10 nM.

With `CN(CCSc1ccc(F)cc1)[C@H]1CC[C@H](c2ccc3[nH]c(=O)oc3c2)CC1` [Example 20, 6-{trans-4-[2-(4-Fluorophenylsulfanylethyl)methylamino]cyclohexyl}-3H-benzoxazol-2-one] the “6-OHDA MED” value [2] was 30 mg/kg, the “6-OHDA active/inactive at the given dose” value [2] was “active” and the IC50 [1] was 25 nM.

With `Cc1ccc(CCCN(C)[C@H]2CC[C@H](c3ccc4[nH]c(=O)oc4c3)CC2)cc1` [Example 21, 6-{trans-4-[Methyl-3-(p-Tolylpropyl)amino]cyclohexyl}-3H-benzoxazol-2-one] the “6-OHDA MED” value [2] was 10 mg/kg, the “6-OHDA active/inactive at the given dose” value [2] was “active” and the IC50 [1] was 16 nM.

In the case of `CN(CCOc1ccccc1)[C@H]1CC[C@H](c2ccc3[nH]c(=O)oc3c2)CC1` [Example 22, 6-{trans-4-[Methyl(2-phenoxyethyl)amino]cyclohexyl}-3H-benzoxazol-2-one], the “6-OHDA MED” value [2] is reported as 10 mg/kg, the “6-OHDA active/inactive at the given dose” value [2] is reported as “active” and the IC50 [1] is reported as 53 nM.

In the case of `CN(CCCc1ccc(C(F)(F)F)cc1)[C@H]1CC[C@H](c2ccc3[nH]c(=O)oc3c2)CC1` [Example 23, 6-{trans-4-[Methyl-3-(4-Trifluoromethylphenyl)propylamino]cyclohexyl}-3H-benzoxazol-2-one], the “6-OHDA MED” value [2] is reported as 10 mg/kg, the “6-OHDA active/inactive at the given dose” value [2] is reported as “active” and the IC50 [1] is reported as 38 nM.

For `CCN(CCCc1ccc(F)cc1)[C@H]1CC[C@H](c2ccc3[nH]c(=O)oc3c2)CC1` [Example 25, 6-(trans-4-{Ethyl-[3-(4-fluorophenyl)propyl]amino}cyclohexyl)-3H-benzoxazol-2-one], the “6-OHDA MED” value [2] was 10 mg/kg, the “6-OHDA active/inactive at the given dose” value [2] was “active” and the IC50 [1] was 79 nM.

Work on `CN(C)c1ccc(CCCN(C)[C@H]2CC[C@H](c3ccc4[nH]c(=O)oc4c3)CC2)cc1` [Example 58, 6-(4-{[3(trans-4-Dimethylaminophenyl)propyl]methylamino}cyclohexyl)-3H-benzoxazol2-one] yielded a melting point of 182 to 184 °C and an IC50 [1] of 357 nM.
